From patent publication US5869662A, “Photochromic benzopyran compounds” (Vision-Ease Lens, Inc., priority 1997, dated 1999)

Experiments:
[1] = Maximum absorption wavelength (λmax) of the activated form in chloroform under ultraviolet irradiation; assay type: physicochemical; conditions: UV irradiation, 350 nm
Procedure: Two grams of the propargyl alcohol obtained in Step 1 were mixed with 1.25 grams of 2-hydroxydibenzofuran in 200 milliliters of benzene. Twenty milligrams of p-toluenesultonic acid were then added and the mixture was stirred under reflux for 8 hours. The resultant mixture was cooled and washed with 10% aqueous sodium hydroxide. The organic solvent (benzene) was removed using a rotary evaporator. The resulting material was dissolved in hexane and the resulting hexane solution was cooled to yield a recrystallized product.
The recrystallized product formed in Step 2 of Example 1; the 3-(4-biphenytyl)-3-phenyl-8-methoxy-3H-naphtho[2,1b]pyran formed in Comparative Example 1; and a purchased sample of 3,3-diphenyl-3H-naphtho-[2,1b]pyran (identified as Comparative Example 2) were each individually dissolved in chloroform in separate containers. These chloroform dissolved substances were then irradiated with ultraviolet light with a maximum wavelength of 350 manometers and measured for maximum absorption wavelength, λmax. The fade time, T1/2, was then determined for each of the irradiated substances. […] The maximum absorption wavelength and fade time determined for the irradiated substances of Example 1 and Comparative Examples 1-2 are presented in Table 1: […]

[2] = Becker patent; cited from earlier work
[3] = Fade time (T1/2) of the activated form in chloroform at room temperature; assay type: physicochemical; conditions: room temperature (72° F.), absorbance of activated form falls to one half of maximum after isolation from UV
Procedure: These chloroform dissolved substances were then irradiated with ultraviolet light with a maximum wavelength of 350 manometers and measured for maximum absorption wavelength, λmax. The fade time, T1/2, was then determined for each of the irradiated substances. The fade time for of the chloroform-dissolved substances is defined as the time interval, at room temperature (72° F.), for the absorbance of the activated form of each chloroform-dissolved substance to decrease to one half of the maximum absorbance, after the substance is isolated from the activating source of ultraviolet light.

| maximum absorption wavelength, λmax (only or shorter-wavelength maximum) [1] | fade time, T1/2 [3] | Structure (SMILES) | photochromic at room temperature [2] |
| --- | --- | --- | --- |
| 484 nanometers | – | COc1ccc2c3c(ccc2c1)OC(c1ccccc1)(c1ccc(-c2ccccc2)cc1)C=C3 (stereo not shown) [Comparative Example 1, 3-(4-biphenylyl)-3-phenyl-8-methoxy-3H-naphtho[2,1b]pyran] | – |
| 434 nanometers | 13 s | C1=CC(c2ccccc2)(c2ccccc2)Oc2ccc3ccccc3c21 [Comparative Example 2, 3,3-diphenyl-3H-naphtho-[2,1b]pyran] | photochromic at room temperature |
